According to patent publication US20070293543A1, “THRESHOLD BLOOD OMEPRAZOLE CONCENTRATION IS 50 NG/ML FOR THE MAINTENANCE OF INTRAGASTRIC pH OF AT LEAST 4.0 AFTER ORAL DOSING WITH CMA-OMEPRAZOLE, AGN 201904-Z” (priority 2006, published 2007):

System: intragastric pH
Test: 24-hr intragastric pH monitoring (pharmacodynamics)
Format: in vivo, healthy male subjects
Conditions: oral once-daily dosing; for % time intragastric pH ≧4.0: 24-hr monitoring, p<0.0001 vs esomeprazole, dose level and day not stated
Method: Methods: Forty healthy male subjects received 240, 480, and 640 mg AGN 201904-Z or 40 mg esomeprazole orally once-daily for 5 days in a open-label, randomized, 4-way cross-over study. These doses were estimated to deliver molar equivalent omeprazole doses of 53%, 107%, and 143% of the esomeprazole dose, respectively. Pharmacokinetic (PK) blood samples were collected at 8 timepoints following the 1st and 5th dose of each treatment. Pharmacodynamics (PD) were evaluated via 24-hr intragastric ph monitoring before treatment and after the 1st and 5th doses of each treatment. Empirical PK/PD models were constructed for AGN 201904-Z data by regressing the % time that intragastric pH ≧4.0 during a 24-hr dosing period against the duration of time that blood omeprazole concentrations were greater than 8 different concentrations over the same 24-hr period. The possible threshold concentrations evaluated ranged from 10 to 400 ng/mL. The concentration that provided the best-fit was designated the threshold concentration. The best-fit concentration and model was chosen based on the WSSR, R^2, visual inspection, and AIC value. Results: Among the possible omeprazole threshold concentrations evaluated, 50 ng/mL was the best-fit concentration value in all of the models evaluated.

Row | SMILES | % time intragastric pH ≧4.0 | maintaining 24-hour intragastric pH ≧4.0, comparison with esomeprazole (healthy male subjects)
1 | COc1ccc2nc([S@@+]([O-])Cc3ncc(C)c(OC)c3C)[nH]c2c1 [esomeprazole, reference compound] | 68.4 % of 24-hr | –
2 | COc1ccc2c(c1)nc([S+]([O-])Cc1ncc(C)c(OC)c1C)n2S(=O)(=O)c1ccc(OCC(=O)[O-])cc1.[Na+] (stereo not drawn) [AGN 201904-Z, sodium {4-[5-Methoxy-2-(4-methoxy-3,5-dimethyl-pyridin-2-ylmethanesulfinyl)-benzoimidazole-1-sulfonyl]-phenoxy}-acetate] | 80.1 % of 24-hr | more effective than esomeprazole
